Assays:
[1] = In vivo biodistribution of LNP-encapsulated PepTACs; design: species or system SKH-1 hairless mice; conditions: Cy5.5-labeled, 5 mg/kg IV, confocal imaging of liver sections
HeLa cells = experiment: Confocal imaging of subcellular localization; assay type: cell-based, human; conditions: free fluorescein-labelled peptide without LNP, 8 hours, live cell confocal
[2] = Encapsulation efficiency of the LNPs; assay type: physicochemical; conditions: optimized LNP formulation, ^CRPepTAC or peptide ligand alone; Figure 4B

Substance	PepTAC signal in liver sections after 24 hours [1]	uptake / subcellular localization (HeLa cells)	LNP Encapsulation Efficiency, % [2]
IYP^OHAL-Ahx-KDVLSEKEKKLEEYKQKLARV [^CRPepTAC]	no signal	no uptake or cellular association	–
KDVLSEKEKKLEEYKQKLARV [CL]	–	–	15%

— publication doi:10.1101/2024.03.17.584721v1 (bioRxiv, 2024)
